Results reported in patent publication US7202280B2, “Methods for the treatment and prevention of pancreatitis and for induction of liver regeneration” (priority 2002, dated 2007).
Several values for one entry are separate records, joined by “and”; a condition that tells them apart may be missing. Equal values may be shown once.

What was measured:
[1] = tested on: syngenic and transgenic rats; assay: Pancreatic SSAT activity and polyamine pools after zinc and methylspermidine; format: in vivo, rat
Method: FIGS. 1a-1d. Pancreatic polyamine pools in syngenic and transgenic rats after zinc and methylspermidine. […] Three to five animals in each group. Me-spd, methylspermidine. The production of transgenic Wistar rats (UKUR30) and mice (UKU181) harboring metallothionein-SSAT fusion gene (Suppola, […]., Porter, C. W., and Jänne, J. (1999) Biochem. […] (2000) Proc. Natl. Acad. Sci. U.S.A. 97, 8290-8295; Lukkarinen, […]., and Alhonen, L. (1997) Stroke 28, 639-645). Partial hepatectomy was carried out according to the original method of Higgins and Anderson (Higgins, G. H., and Anderson, R. M. (1931) Arch. Pathol. 12, 186-202). Treatments before partial hepatectomy and the determination of DNA synthesis were carried out as in ([…]., Suppola, […]., and […]. Biol. Chem. 277, 39867-39872). Transgenic 10 weeks old male rats were injected twice with MDL72527 (50 mg/kg i.p.) at 16-h interval to inactivate PAO according to (Bolkenius, F. N., Bey, P., and Seiler, N. (1985) Biochim. Biophys. […] An aliquot of the homogenates was used for the polyamine assays. The homogenates were centrifuged (at 13 000×g, for 30 min, at 4° C.) and the supernatants were used for the enzyme activity assays. The Institutional Animal Care and Use Committee of the University of Kuopio and by the Provincial Government approved animal experiments. […] Merck (Darmstadt, Germany). […] The changes in pancreatic polyamine pools in response to zinc and methylspermidine are depicted in FIG. 1. […] The various treatments only marginally altered pancreatic putrescine pools (FIG. 1a). […] FIG. 1d depicts the accumulation of the analogue in the pancreas after a single dose or two doses.

[2] = tested on: rats with arginine-induced pancreatitis; assay: Arginine-induced pancreatitis; format: in vivo, rat
Method: FIG. 6 Plasma α-amylase activity in rats with arginine-induced pancreatitis after methylspermidine. The animals received […]-500 mg/kg) 24 h before sacrifice with or without methylspermidine (50 mg/kg) either as a single dose 4 h before arginine or as two doses 20 h and 4 h before arginine. Three to five animals in each group. Arg, Arginine. Me-Spd, methylspermidine. Administration of large quantities of arginine is known to cause acute, necrotizing pancreatitis in rats.

[3] = tested on: rats with cerulein-induced pancreatitis; assay: Cerulein-induced pancreatitis; format: in vivo, rat
Method: FIG. 7 Effect of pancreatic-associated edema by methylspermidine in rats with cerulein-induced pancreatitis. The animals received cerulein 24 h before sacrifice with or without methylspermidine (50 mg/kg) as a single dose 4 h before cerulein. Three to five animals in each group. Me-Spd, methylspermidine. Administration of cerulein induces a non-necrotizing pancreatitis in rodents. Cerulein-induced pancreatitis is characterized by a pronounced increase in plasma/serum amylase activity.

[4] = tested on: SSAT transgenic rats (UKUR30); assay: Pancreatic zinc, SSAT activity and polyamine levels in zinc induced pancreatitis treated with MeSpd; format: in vivo; conditions: single animals
Method: Transgenic UKUR30 female rats (weighting about 200 g) were used for the experiments. Pancreatitis was initiated with zinc 10 mg/kg treatment. Experiments were separated in five different parts (Exp. 1–5). Animals treated with α-MeSPD received 50 mg/kg i.p at the indicated time point(s). The pooled data from all of the experiment is shown in tables 4 A/B/C/D. First histological signs of pancreatic failure were evident within 6 h after the zinc. Pancreatic failure steadily increases until 24 hours when the first animals died. Within 48 hours mortality was almost 70% in control zinc treated rats. […].
Tables 4 A/B/C/D present the natural course of zinc induced pancreatitis. Histological scoring along with plasma amylase activity is shown as a measure of severity of pancreatitis. Tissue zinc and polyamine levels and SSAT activity were determined to verify the response of each animal to the treatment. No other data than the number of death animals is shown from deceased animals. Transgenic UKUR30 female rats weighting about 200 grams were used for the experiment. Zinc was injected i.p. 10 mg/kg to initiate acute pancreatitis. Animals treated with MeSpd received one 50 mg/kg dosage i.p. at the indicated time point(s). At indicated time points live animals were sacrificed and pancreas was subjected to further analysis. […] Values for polyamines are expressed as pmoles/mg/wet weight. SSAT pmoles/10 min/mg wet weight.

[5] = Zn 24 h, MeSpd 50 mg/kg i.p. at 3 h/8 h
[6] = Zn 24 h, MeSpd 50 mg/kg i.p. at 6 h/12 h
[7] = Zn 24 h, MeSpd 50 mg/kg i.p. at 12 h
[8] = Zn 48 h, MeSpd 50 mg/kg i.p. at 3 h/8 h
[9] = Zn 48 h, MeSpd 50 mg/kg i.p. at 4 h/24 h
[10] = Zn 48 h, MeSpd 50 mg/kg i.p. at 12 h/24 h

CC(N)CCNCCCCN (stereo not drawn) [α-methylspermidine, 1-methylspermidine]
accumulation of the analogue in the pancreas ([1]; single dose or two doses of 50 mg/kg): effectively accumulated in the pancreas apparently with no further metabolism | SSAT activity, Pancreas ([1]; syngenic rats, zinc 10 mg/kg with methylspermidine 50 mg/kg): did not influence SSAT activity | SSAT activity, Pancreas ([1]; transgenic rats, analogue with zinc vs zinc alone): only slightly increased SSAT activity | Pancreatic spermidine pool ([1]; transgenic rats, zinc 10 mg/kg): little effect on zinc-induced depletion of spermidine | plasma amylase ([2]; arginine 250–500 mg/kg, single dose 50 mg/kg): significantly reduced the pancreatitis-associated increase in plasma amylase | plasma amylase levels ([2]; arginine 250–500 mg/kg, two repeated doses): fully normalized | histopathological changes in the pancreas ([2]; arginine-induced pancreatitis): prevented the histopathological changes | amylase levels ([3]; cerulein-induced pancreatitis): does not normalize amylase levels | pancreatitis-associated edema ([3]; cerulein, single dose 50 mg/kg): reduces the pancreatitis-associated edema | MeSpd (pancreas) [4, 5]: 1943 pmoles/mg/wet weight and 1425 pmoles/mg/wet weight and 907 pmoles/mg/wet weight and 0 pmoles/mg/wet weight | N^1AcSpd (pancreas) [4, 5]: 54 pmoles/mg/wet weight and 58 pmoles/mg/wet weight and 31 pmoles/mg/wet weight and 0 pmoles/mg/wet weight | PU (pancreas) [4, 5]: 3231 pmoles/mg/wet weight and 2820 pmoles/mg/wet weight and 2269 pmoles/mg/wet weight and 2159 pmoles/mg/wet weight | SPD (pancreas) [4, 5]: 1165 pmoles/mg/wet weight and 265 pmoles/mg/wet weight and 119 pmoles/mg/wet weight and 3405 pmoles/mg/wet weight | SPM (pancreas) [4, 5]: 299 pmoles/mg/wet weight and 128 pmoles/mg/wet weight and 69 pmoles/mg/wet weight and 441 pmoles/mg/wet weight | SSAT (pancreas) [4, 5]: 50 pmoles/10 min/mg wet weight and 91 pmoles/10 min/mg wet weight and 100 pmoles/10 min/mg wet weight and 18 pmoles/10 min/mg wet weight | MeSpd (pancreas) [4, 6]: 2268 pmoles/mg/wet weight and 3242 pmoles/mg/wet weight and 3098 pmoles/mg/wet weight and 745 pmoles/mg/wet weight and 798 pmoles/mg/wet weight and 954 pmoles/mg/wet weight and 834 pmoles/mg/wet weight and 1993 pmoles/mg/wet weight and 728 pmoles/mg/wet weight | N^1AcSpd (pancreas) [4, 6]: 113 pmoles/mg/wet weight and 45 pmoles/mg/wet weight and 43 pmoles/mg/wet weight and 66 pmoles/mg/wet weight and 71 pmoles/mg/wet weight and 98 pmoles/mg/wet weight and 134 pmoles/mg/wet weight and 20 pmoles/mg/wet weight and 59 pmoles/mg/wet weight | PU (pancreas) [4, 6]: 6768 pmoles/mg/wet weight and 6932 pmoles/mg/wet weight and 4915 pmoles/mg/wet weight and 2335 pmoles/mg/wet weight and 1932 pmoles/mg/wet weight and 2401 pmoles/mg/wet weight and 1911 pmoles/mg/wet weight and 3790 pmoles/mg/wet weight and 1935 pmoles/mg/wet weight | SPD (pancreas) [4, 6]: 478 pmoles/mg/wet weight and 1114 pmoles/mg/wet weight and 1297 pmoles/mg/wet weight and 108 pmoles/mg/wet weight and 96 pmoles/mg/wet weight and 105 pmoles/mg/wet weight and 84 pmoles/mg/wet weight and 1096 pmoles/mg/wet weight and 100 pmoles/mg/wet weight | SPM (pancreas) [4, 6]: 213 pmoles/mg/wet weight and 431 pmoles/mg/wet weight and 408 pmoles/mg/wet weight and 41 pmoles/mg/wet weight and 54 pmoles/mg/wet weight (2×) and 50 pmoles/mg/wet weight and 276 pmoles/mg/wet weight and 46 pmoles/mg/wet weight | SSAT (pancreas) [4, 6]: 1403 pmoles/10 min/mg wet weight and 37 pmoles/10 min/mg wet weight and 40 pmoles/10 min/mg wet weight and 10372 pmoles/10 min/mg wet weight and 3866 pmoles/10 min/mg wet weight and 5823 pmoles/10 min/mg wet weight and 6216 pmoles/10 min/mg wet weight and 1024 pmoles/10 min/mg wet weight and 5748 pmoles/10 min/mg wet weight | MeSpd (pancreas) [4, 7]: 1113 pmoles/mg/wet weight and 371 pmoles/mg/wet weight and 333 pmoles/mg/wet weight and 334 pmoles/mg/wet weight | N^1AcSpd (pancreas) [4, 7]: 16 pmoles/mg/wet weight and 57 pmoles/mg/wet weight and 65 pmoles/mg/wet weight and 42 pmoles/mg/wet weight | PU (pancreas) [4, 7]: 5328 pmoles/mg/wet weight and 3361 pmoles/mg/wet weight and 2782 pmoles/mg/wet weight and 3116 pmoles/mg/wet weight | SPD (pancreas) [4, 7]: 1360 pmoles/mg/wet weight and 124 pmoles/mg/wet weight and 153 pmoles/mg/wet weight and 126 pmoles/mg/wet weight | SPM (pancreas) [4, 7]: 479 pmoles/mg/wet weight and 47 pmoles/mg/wet weight and 61 pmoles/mg/wet weight and 45 pmoles/mg/wet weight | SSAT (pancreas) [4, 7]: 29 pmoles/10 min/mg wet weight and 6855 pmoles/10 min/mg wet weight and 4852 pmoles/10 min/mg wet weight and 6866 pmoles/10 min/mg wet weight | MeSpd (pancreas) [4, 8]: 646 pmoles/mg/wet weight and 1043 pmoles/mg/wet weight and 768 pmoles/mg/wet weight | N^1AcSpd (pancreas) [4, 8]: 43 pmoles/mg/wet weight and 21 pmoles/mg/wet weight and 29 pmoles/mg/wet weight | PU (pancreas) [4, 8]: 1538 pmoles/mg/wet weight and 1268 pmoles/mg/wet weight and 649 pmoles/mg/wet weight | SPD (pancreas) [4, 8]: 367 pmoles/mg/wet weight and 313 pmoles/mg/wet weight and 148 pmoles/mg/wet weight | SPM (pancreas) [4, 8]: 119 pmoles/mg/wet weight and 90 pmoles/mg/wet weight and 51 pmoles/mg/wet weight | SSAT (pancreas) [4, 8]: 92 pmoles/10 min/mg wet weight and 82 pmoles/10 min/mg wet weight and 90 pmoles/10 min/mg wet weight | MeSpd (pancreas) [4, 9]: 1066 pmoles/mg/wet weight and 2249 pmoles/mg/wet weight and 1415 pmoles/mg/wet weight and 1041 pmoles/mg/wet weight and 1493 pmoles/mg/wet weight | N^1AcSpd (pancreas) [4, 9]: 0 pmoles/mg/wet weight | PU (pancreas) [4, 9]: 1522 pmoles/mg/wet weight and 2416 pmoles/mg/wet weight and 1960 pmoles/mg/wet weight and 1744 pmoles/mg/wet weight and 1896 pmoles/mg/wet weight | SPD (pancreas) [4, 9]: 1344 pmoles/mg/wet weight and 1052 pmoles/mg/wet weight and 1928 pmoles/mg/wet weight and 2533 pmoles/mg/wet weight and 369 pmoles/mg/wet weight | SPM (pancreas) [4, 9]: 238 pmoles/mg/wet weight and 254 pmoles/mg/wet weight and 339 pmoles/mg/wet weight and 557 pmoles/mg/wet weight and 112 pmoles/mg/wet weight | SSAT (pancreas) [4, 9]: 10 pmoles/10 min/mg wet weight and 28 pmoles/10 min/mg wet weight and 17 pmoles/10 min/mg wet weight and 8 pmoles/10 min/mg wet weight and 75 pmoles/10 min/mg wet weight | MeSpd (pancreas) [4, 10]: 452 pmoles/mg/wet weight and 1053 pmoles/mg/wet weight and 560 pmoles/mg/wet weight and 629 pmoles/mg/wet weight | N^1AcSpd (pancreas) [4, 10]: 70 pmoles/mg/wet weight and 51 pmoles/mg/wet weight and 49 pmoles/mg/wet weight and 42 pmoles/mg/wet weight | PU (pancreas) [4, 10]: 889 pmoles/mg/wet weight and 7496 pmoles/mg/wet weight and 1078 pmoles/mg/wet weight and 1345 pmoles/mg/wet weight | SPD (pancreas) [4, 10]: 79 pmoles/mg/wet weight and 1571 pmoles/mg/wet weight and 165 pmoles/mg/wet weight and 456 pmoles/mg/wet weight | SPM (pancreas) [4, 10]: 35 pmoles/mg/wet weight and 422 pmoles/mg/wet weight and 61 pmoles/mg/wet weight and 141 pmoles/mg/wet weight | SSAT (pancreas) [4, 10]: 548 pmoles/10 min/mg wet weight and 42 pmoles/10 min/mg wet weight and 4391 pmoles/10 min/mg wet weight and 2001 pmoles/10 min/mg wet weight
